# Entries after “also recorded” stand apart in the source; their conditions may differ.
# What was measured:
# SMN complex = test: high-throughput 384-well SMN complex activity / snRNP assembly assay; assay type: biochemical; conditions: test compound added to labeled RNA, cell extract and ATP; identified inhibitors, FIG. 10
# Text: The present assay comprises labeling an RNA, in the case of an assay to measure Sm core activity, the RNA is snRNA. The RNA is preferably labeled with a non-radioactive tag, such as biotin-UTP. […] The labeled RNA binds the plate through the interaction between biotin and avidin/streptavidin. The RNA binding proteins present in the cell extract bind their RNA target at sequence specific sites, forming a ribonucleoprotein complex in the multi-well plate substrate. The ribonucleoprotein complex is captured on the plate and the plate is washed one or more times. An anti RNA binding protein antibody is then added to the plate. The plate is again washed one or more times and an labeled antibody, such as an HRP labeled antibody, is added to the multi-well plate substrate. The plate is washed one or more times, and HRP substrate is added. Chemiluminescence generated by HRP is detected using a plate reader.
# Five microliters of test compound dissolved in DMSO were added to each well of the plate. Five microliters of HeLa whole cell extract containing 8 μg of total protein was added to each well. The plate was centrifuged (5 minutes at 1000 rpm), and the assembly reactions were allowed to proceed for 1 hour at room temperature. The reaction mixtures were aspirated and 20 μl/well of Y12 antibody (diluted 1:1000 in RSB-500 (10 mM Tris/HCl, pH 7.5, 500 mM NaCl, 2.5 mM MgCl2, and 0.1% Nonidet P-40 (NP-40)) containing 1 mg/ml BSA, 2 mg/ml heparin, and 1× Complete EDTA-free Protease Inhibitor Cocktail) was added. The plate was centrifuged for 5 minutes at 1000 rpm, and incubated for 1 hour at room temperature.
# The plate was washed 10× with RSB-500 using an automated plate washer, followed by the addition of 20 ml/well of horseradish peroxidase-conjugated AffiniPure goat anti-mouse IgG+IgM (diluted 1:10,000 in RSB-500 containing 1 mg/ml BSA) for 1 hour at room temperature. The plate was centrifuged for 5 minutes at 1000 rpm. The plate was then washed 10× using an automated washer and 20 μl of SuperSignal ELISA Femto Maximum Sensitivity enhanced chemiluminescence substrate working solution was added into each well. The plate was then centrifuged for 5 minutes at 1000 rpm. The luminescence signal was measured using a plate Reader.
# The assay of the present invention can also be used to determine the dose response activity of a compound on an RNA binding protein-RNA complex.
# [1] = system: Sm core assembly on U4 snRNA in HeLa cytoplasmic extracts; test: magnetic beads assay for in vitro assembly of snRNPs (Sm core assembly); assay type: biochemical; conditions: cell extracts, AMP-PNP in place of ATP, FIG. 3A
# Experimental: For quantitative in vitro assembly assays on magnetic beads, cytoplasmic extracts were prepared and used for assembly on biotin-labeled snRNAs using the standard reconstitution conditions in 96-well plates. Following the reactions, Y12 antibodies immobilized onto the magnetizable Dynabeads Protein A (Dynal Biotech ASA, Oslo, Norway) in 100 μl of RSB-500 buffer (10 mM Tris/HCl pH 7.5, 500 mM NaCl, 2.5 mM MgCl2) containing 2 mg/ml heparin, 0.1% NP-40, and 0.2 U/μl RNasin Plus RNase inhibitor (Promega, Madison, Wis.) were added to each well. Immunoprecipitations in the 96-well plates were carried out with gentle mixing at 750 rpm in a Thermomixer (Eppendorf, Germany) at 30° C. for 1 hour. The plates were subsequently transferred to a Kingfisher 96 magnetic particle processor (Thermo Labsystems, Vantaa, Finland) for automatic washing of the Dynabeads in each well with wash buffer (RSB-500, 0.1% NP-40) 5 times. […] The plates were transferred to a Wallac Victor2 multi-label plate reader (Perkin-Elmer, Wellesley, Mass.) for luminescence measurements at 495 nm. The resulting data were analyzed with Microsoft Excel.
# To facilitate the study of the snRNP assembly process, an assay that allows a quantitative measurement of Sm core formation was developed (FIG. 2). […] This step also serves to amplify the signals for the luminescence measurement of the HRP activity on an automatic plate reader. […]
Structure (SMILES),formation of an RNA binding protein-RNA complex (SMN complex),Sm core assembly (snRNP complex formation) [1]
"O=C1C(SCCO)=C(SCCO)C(=O)c2ccccc21 [2,3-bis[(2-Hydroxyehtyl)thio]-1,4-naphthoquinone]",inhibits the formation of an RNA binding protein-RNA complex,–
"Nc1ncnc2c1ncn2[C@@H]1O[C@H](COP(=O)(O)OP(=O)(O)NP(=O)(O)O)[C@@H](O)[C@H]1O [AMP-PNP, adenosine 5′-(β,γ-imido)triphosphate]",–,does not permit the formation; also recorded: does not occur
CC1(C)CCC2=C(O1)c1ccccc1C(=O)C2=O [beta-lapachone],inhibits the formation of an RNA binding protein-RNA complex,–
Oc1c(Cl)cc(Cl)cc1Sc1cc(Cl)cc(Cl)c1O [bithionol],inhibits the formation of an RNA binding protein-RNA complex,–
Oc1c(Cl)cc(Cl)c(Cl)c1Cc1c(O)c(Cl)cc(Cl)c1Cl [hexachlorophene],inhibits the formation of an RNA binding protein-RNA complex,–

# — patent US8822168B2, “Assays for detecting small nuclear ribonucleoprotein particle assembly and survival of motor neurons activity” (The Trustees of the University of Pennsylvania, priority 2005, dated 2014)
